Results as given in PubChem BioAssay (NCI).
“And” between values parts separate entries of the source, which are not always exact repeats. Identical values can stand only once.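 Exposure lasted 48 hours, with cells grown in 96-well plates and compounds tested at five concentrations. Abbreviation: GI50, concentration required for 50% inhibition of growth. TGI denotes the concentration required for complete inhibition of growth.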

What was measured:
Assay in all cases: NCI tumour cell line growth inhibition, 48 h
[1] = system: CCRF-CEM leukemia
[2] = system: DU-145 prostate
[3] = system: HCT-15 colon
[4] = system: HS 578T breast
[5] = system: MDA-MB-231 breast
[6] = system: OVCAR-3 ovarian
[7] = system: SK-MEL-2 melanoma
[8] = system: SK-MEL-5 melanoma
[9] = system: SNB-19 CNS
[10] = system: T-47D breast

Row | Structure (SMILES) | GI50 [1] [µM] | TGI [1] | GI50 [2] [µM] | TGI [2] [µM] | GI50 [3] | TGI [3] | GI50 [4] [µM] | TGI [4] | GI50 [5] [µM] | TGI [5] [µM] | GI50 [6] [µM] | TGI [6] | GI50 [7] [µM] | TGI [7] | GI50 [8] [µM] | TGI [8] | GI50 [9] [µM] | TGI [9] | GI50 [10] [µM] | TGI [10] [µM]
1 | C#CCCCCCC(=O)N[C@H]1C=C[C@@H]2/C=C(C)/C=C/[C@@H](C)[C@H]([C@H](C)[C@H](O)[C@@H](C)NC(C)=O)OC(=O)/C=C/C=C(C)\C=C\[C@]2(C)C1 | 0.479 | > 40 µM | 0.0157 | > 40 | 0.00804 µM | > 40 µM | 0.00422 | > 40 µM | < 0.004 | < 0.004 | 0.00889 | > 40 µM | 4.87 | > 40 µM | < 0.004 | 0.00803 µM | 0.0247 | > 40 µM | < 0.004 | 13.6
2 | OCc1ccc(N2CCc3ccc(F)cc3C2)cc1Cl | 2.6 | 9.97 µM | 7.06 | 21.2 | 2.82 µM | 18.8 µM | 15.8 | 48.4 µM | 11.7 | 24.9 | 0.0605 | 0.325 µM | 0.226 | 8.79 µM | 0.856 | 20 µM | 12.4 | 27 µM | 0.101 | 0.499
3 | Cc1ccc(-c2nc([P+](c3ccccc3)(c3ccccc3)c3ccccc3)c(N3CCOCC3)o2)cc1 | 0.588 | 11.3 µM | 0.472 | 10.9 | 3.09 µM | 12.1 µM | 0.578 | 9.64 µM | 0.399 | 4.93 | 0.362 | 3.69 µM | 0.559 | 2.76 µM | 0.314 | 1.03 µM | 0.333 | 4.91 µM | 0.23 | 1.83
4 | O=C1NC(=O)C2C3C=CC(C12)C1C2C(=O)NC(=O)C2C31 (stereo not given) | 237 | 250 µM and > 1000 µM | > 619 | > 1000 | > 43.6 µM and 646 µM | > 61 µM and 250 µM and > 1000 µM | 419 | 250 µM and > 562 µM | > 801 | > 1000 | > 909 | 250 µM and > 1000 µM | > 719 | 244 µM and > 1000 µM | 389 | 224 µM and > 756 µM | 327 | 238 µM and > 904 µM | 480 | > 1000
5 | N#CC1=C(N)Oc2c(ccc3ccccc23)C1c1cc2ccccc2n2nnnc12 (stereo not given) | 0.739 | > 100 µM | 2.77 | > 100 | 0.524 µM | > 100 µM | 1.51 | 49.3 µM | 0.976 | > 100 | 0.44 | 3.36 µM | 0.616 | 6.84 µM | 0.611 | > 100 µM | 0.702 | > 100 µM | 1.83 | > 100
6 | Cn1cc(-c2ccc3c(c2)ncn3-c2cc(NS(=O)(=O)C3CC3)cc(-c3ccc(F)cc3F)c2)cn1 | 7.5 | > 100 µM | 21.2 | > 100 | 7.4 µM | > 100 µM | 1.68 | 12.6 µM | 5.61 | > 100 | 14.5 | 62.3 µM | 25.7 | 61.5 µM | 13.1 | 32 µM | 9.46 | > 100 µM | 7.39 | 62.8
7 | CC1(C)CC2=NO[Se]3=C2C(=NO3)C1 | – | 30.4 µM | – | 10.4 | – | 11.5 µM | – | 33.1 µM | – | 16.4 | – | 5.37 µM | – | 24.8 µM | – | 3.28 µM | – | 15.3 µM | – | 24.7
